A value given as a limit tells only on which side of the number the result lay.

The target in the first assay is Sphingosine 1-phosphate receptor 1 (Homo sapiens, UniProt P21453). Briefly: S1P1 receptor agonists, dose response, cell-based, agonist mode, 60K MLSMR set (AID 468).
Sequence of Sphingosine 1-phosphate receptor 1 (P21453 whole entry): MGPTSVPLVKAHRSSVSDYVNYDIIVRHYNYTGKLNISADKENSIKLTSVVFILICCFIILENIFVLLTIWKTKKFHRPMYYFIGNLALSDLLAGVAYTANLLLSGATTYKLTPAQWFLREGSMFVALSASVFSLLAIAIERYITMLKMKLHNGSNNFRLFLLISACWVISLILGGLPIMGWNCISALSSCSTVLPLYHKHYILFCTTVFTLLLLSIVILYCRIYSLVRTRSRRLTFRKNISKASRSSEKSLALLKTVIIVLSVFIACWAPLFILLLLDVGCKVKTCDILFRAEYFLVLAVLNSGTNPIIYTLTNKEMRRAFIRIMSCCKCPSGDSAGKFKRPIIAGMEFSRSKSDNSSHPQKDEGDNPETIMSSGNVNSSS
Conditions: not given
One may read the EC50 as the midpoint of the concentration-response curve. A low value points to an effect from little substance. As to `C=CCN1/C(=N/c2cccnc2)SCC1(O)c1ccc(C)cc1` (centres undefined) [(2E)-3-allyl-4-(4-methylphenyl)-2-(pyridin-3-ylimino)-1,3-thiazolidin-4-ol], the EC50 came to 6.13 µM. In turn, `Cn1nc(C(C)(C)C)cc1C(=O)NCc1ccc(N2CCCC2=O)cc1` [5-tert-Butyl-2-methyl-2H-pyrazole-3-carboxylic acid 4-(2-oxo-pyrrolidin-1-yl)-benzylamide] displayed an EC50 of 3.86 µM. The same measure, in the same setting: to `NC(=Nc1nc2c(c(=O)[nH]1)CCCC2)Nc1ccccc1` [MLS000078734] belongs 7.23 µM; to `Cc1cccc(NC(=O)Nc2ccc(C#N)cc2)n1` [1-(4-cyanophenyl)-3-(6-methyl-2-pyridinyl)urea], more than 30 µM; to `c1ccc2c(c1)CCN(c1ncnc3c1[nH]c1ccccc13)C2` [SMR000039631], 1.19 µM. `Cn1nc(CC(=O)Nc2ccc3c(c2)OCCO3)c2ccccc2c1=O` [MLS000047020] showed an EC50 of 5.94 µM. The same measure, in the same setting: to `CN=C(NC#N)SCC(=O)c1ccc(Cl)cc1Cl` [[2-(2,4-dichlorophenyl)-2-oxidanylidene-ethyl] N-cyano-N'-methyl-carbamimidothioate] belongs 4.55 µM; to `CCN(CC)c1ccc2cc(NC(=O)CCC(=O)O)c(=O)oc2c1` [4-[[7-(diethylamino)-2-keto-chromen-3-yl]amino]-4-keto-butyric acid], 9.78 µM; to `CCOc1ccc(-c2nnc(-c3cccs3)o2)cc1OCC` [2-(3,4-Diethoxy-phenyl)-5-thiophen-2-yl-[1,3,4]oxadiazole], 5.93 µM. On the same count and under the same terms, with `Clc1ccc(CCNc2[nH]cnc3ncnc2-3)cc1` [SMR000017624] the figure was 9.86 µM; with `O=C(Nc1nccs1)c1ccc(S(=O)(=O)NCC2CCCCC2)cc1` [4-(Cyclohexylmethyl-sulfamoyl)-N-thiazol-2-yl-benzamide], 8.02 µM. The same measure, in the same setting: to `c1csc(CCNc2ncnc3sc4c(c23)CCC4)c1` [7,8-dihydro-6H-cyclopenta[4,5]thieno[1,2-c]pyrimidin-1-yl-[2-(2-thienyl)ethyl]amine] belongs 1.24 µM. Molecule `O=C(c1cc(-c2ccco2)on1)N1CCN(C(c2ccccc2)c2ccccc2)CC1` [(4-benzhydrylpiperazin-1-yl)-[5-(furan-2-yl)-1,2-oxazol-3-yl]methanone] had an EC50 of 6.75 µM. Molecule `O=C(Nc1ccc(O)cc1)c1cc2n(n1)C(C(F)(F)F)CC(c1ccco1)N2` (centres undefined) [5-(2-furanyl)-N-(4-hydroxyphenyl)-7-(trifluoromethyl)-1,5,6,7-tetrahydropyrazolo[1,5-a]pyrimidine-2-carboxamide] had an EC50 of 3.63 µM. For the molecule `Cc1ccsc1C(=O)OCC(=O)c1cc(C)n(CC2CCCO2)c1C` (centres undefined) [3-methyl-2-thiophenecarboxylic acid [2-[2,5-dimethyl-1-(2-oxolanylmethyl)-3-pyrrolyl]-2-oxoethyl] ester], the EC50 stood at 7.53 µM.

Turning to `Cc1oc2cc(O)cc(O)c2c(=O)c1-c1ccc2c(c1)OCCCO2` [3-(3,4-dihydro-2H-1,5-benzodioxepin-7-yl)-2-methyl-5,7-bis(oxidanyl)chromen-4-one], a half-maximal response (EC50) required 4.54 µM. On the same count and under the same terms, to `CN(CC1CCCO1)S(=O)(=O)c1ccc(C(=O)Nc2nc(-c3ccccn3)cs2)cc1` (centres undefined) [4-[methyl(2-oxolanylmethyl)sulfamoyl]-N-[4-(2-pyridinyl)-2-thiazolyl]benzamide] belongs more than 10 µM; to `COc1ccc(C(c2c(O)ccc3ccccc23)N2CCOCC2)c(OC)c1` (centres undefined) [1-[(2,4-dimethoxyphenyl)-(4-morpholinyl)methyl]-2-naphthalenol], 4.94 µM. `Cc1cccc(OCCCCc2c(C)n[nH]c2C)c1C` [SMR000103133] came in with an EC50 of 4.96 µM.

The molecule `CCCc1ccc(OCc2nc(-c3ccc(NC(=O)c4ccco4)cc3)no2)cc1` [MLS000097352] yielded a concentration for a half-maximal effect (EC50) of 4.39 µM. Turning to `CCn1nc(-c2cccs2)nc2c(=O)n(C)c(=O)nc1-2` [1-ethyl-6-methyl-3-thiophen-2-yl-pyrimido[5,4-e][1,2,4]triazine-5,7-dione], the EC50 was more than 10 µM.

Molecule `OC1(c2cccc(C(F)(F)F)c2)CCN(c2ncnc3c2[nH]c2ccc(F)cc23)CC1` [1-(8-fluoranyl-5H-pyrimido[5,4-b]indol-4-yl)-4-[3-(trifluoromethyl)phenyl]piperidin-4-ol] had an EC50 of 3.91 µM. For the molecule `CC(C)(C)OC(=O)N[C@@H](Cc1ccccc1)c1nnc(S(=O)(=O)Cc2cccc(F)c2)o1` [tert-butyl N-[(1S)-1-[5-[(3-fluorophenyl)methylsulfonyl]-1,3,4-oxadiazol-2-yl]-2-phenylethyl]carbamate], the EC50 was 8.51 µM. For the molecule `C=CS(=O)(=O)c1ccc(Oc2ccc(S(=O)(=O)C=C)cc2)cc1` [1-ethenylsulfonyl-4-(4-ethenylsulfonylphenoxy)benzene], the EC50 was 2.74 µM. The same measure, in the same setting: with `O=C(CCC(=O)N(Cc1ccco1)C(C(=O)NC1CCCC1)c1ccncc1)Nc1cccnc1` (centres undefined) [MLS000033292] the figure was more than 95 µM; with `CCC(C)c1ccc2oc(-c3ccc(NC(=O)c4nnc[nH]4)cc3)nc2c1` (centres undefined) [N-[4-(5-sec-butyl-1,3-benzoxazol-2-yl)phenyl]-1H-1,2,4-triazole-3-carboxamide], more than 10 µM. Same read-out and setting: to `COc1ccc2[nH]c(=O)c3c(c2c1)OC(C)(C)C=C3` belongs 4.51 µM; to `Cn1c(C(=O)N2CCCc3ccccc32)cc2sccc21` [(3,4-Dihydro-2H-quinolin-1-yl)-(4-methyl-4H-thieno[3,2-b]pyrrol-5-yl)-methanone], 1.78 µM; to `Cc1cc(C(=O)N2CCN(C(c3ccccc3)c3ccccc3)CC2)on1` [(4-benzhydrylpiperazin-1-yl)-(3-methyl-1,2-oxazol-5-yl)methanone], 5.8 µM.

Turning to `COCCn1c(C)cc(C(=O)CSc2nc3ccccc3o2)c1C` [2-(1,3-benzoxazol-2-ylsulfanyl)-1-[1-(2-methoxyethyl)-2,5-dimethyl-pyrrol-3-yl]ethanone], the EC50 is more than 95 µM. Still for that read-out and setting: to `Cc1csc(NC(=O)C(Cc2ccccc2)n2cccc2)n1` (centres undefined) [MLS000119019] belongs 2.77 µM; to `CCOC(=O)c1cnc(-n2nc(C)cc2C)nc1NC1CCCCC1` [4-(cyclohexylamino)-2-(3,5-dimethyl-1-pyrazolyl)-5-pyrimidinecarboxylic acid ethyl ester], 6.37 µM. Same read-out and setting: with `CCOc1ccc(-c2nnc(-c3ccco3)o2)cc1OCC` [2-(3,4-Diethoxy-phenyl)-5-furan-2-yl-[1,3,4]oxadiazole] the figure was 1.18 µM.

For the molecule `Clc1ccccc1C1=Nn2c(nnc2-c2ccncc2)SC1` [6-(2-chlorophenyl)-3-(4-pyridyl)-7H-[1,2,4]triazolo[3,4-b][1,3,4]thiadiazine], the EC50 was determined as 3.48 µM.

As for `O=S1(=O)C=C(Sc2nc3cc(Cl)ccc3o2)c2ccccc21` [SMR000019512], the EC50 was more than 30 µM. On the same count and under the same terms, with `Cc1cc(C)n2nc(SCC(=O)c3cc(C)n(-c4cc(C)on4)c3C)nc2n1` [1-[2,5-dimethyl-1-(5-methyl-1,2-oxazol-3-yl)pyrrol-3-yl]-2-[(5,7-dimethyl-[1,2,4]triazolo[1,5-a]pyrimidin-2-yl)sulfanyl]ethanone] the figure was 4.18 µM; with `c1ccc2c(c1)oc1c(NCc3ccc4c(c3)OCO4)ncnc12` [MLS000057790], 5.6 µM. Consider `CCCCOC(=O)c1[nH]c2c(c1C)C(=O)CC(c1cc(OC)c(OC)c(OC)c1)C2` (centres undefined), for which it took 4.19 µM to reach a half-maximal effect (EC50). In turn, `Clc1ccc(CSc2nnc(-c3ccncc3)o2)cc1` [2-[(4-chlorobenzyl)thio]-5-(4-pyridyl)-1,3,4-oxadiazole] yielded a 50% effective concentration (EC50) of 3.92 µM. In turn, `O=C(CSc1nnc(-c2c[nH]c3ccccc23)o1)N1c2ccccc2CCc2ccccc21` gave an EC50 of 7.07 µM.

Regarding `CCCc1cc(C(=O)N2CCN(C(c3ccccc3)c3ccccc3)CC2)no1` [(4-benzhydrylpiperazin-1-yl)-(5-propyl-1,2-oxazol-3-yl)methanone], the EC50 worked out at 8.01 µM.

The assay is the same for the next values; noted with them: inactive by the depositor's call.
On to `CC(C)Cc1cc(C(=O)Nc2cc(Br)ccc2O)no1` [MLS000116399], for which the EC50 turned out to be 20.2 µM. On the same count and under the same terms, with `CCCOC(=O)c1[nH]c2c(c1C)C(=O)CC(c1cc(OC)c(OC)c(OC)c1)C2` (centres undefined) [MLS000116504] the figure was 10.9 µM. Still for that read-out and setting: to `COc1ccc(-c2cn3c(C)c(C(=O)N4CCCc5ccccc54)sc3n2)cc1` [3,4-dihydro-2H-quinolin-1-yl-[6-(4-methoxyphenyl)-3-methyl-2-imidazo[2,1-b]thiazolyl]methanone] belongs 50.5 µM; to `CCCC(=O)Nc1ccc(-c2nc3cc(C)c(C)cc3o2)cc1` [MLS000089940], 10.2 µM; to `COc1cccc(-c2csc(N3CCN(CC(=O)Nc4ccc5c(c4)OCO5)CC3)n2)c1` [MLS000070935], 17 µM. For `CC1CC(C)(C)Nc2ccc(OC(=O)c3ccco3)cc21` (centres undefined) [(2,2,4-trimethyl-3,4-dihydro-1H-quinolin-6-yl) furan-2-carboxylate], the EC50 was determined as 13.6 µM. Same read-out and setting: to `COc1ccccc1-c1nc(-c2ccc(Br)cc2)no1` [3-(4-bromophenyl)-5-(2-methoxyphenyl)-1,2,4-oxadiazole] belongs 12 µM; to `COc1ccc(Cc2nc(-c3ccc(-n4cccc4)cc3)no2)cc1OC` [3-(4-pyrrol-1-ylphenyl)-5-veratryl-1,2,4-oxadiazole], 13.7 µM. Still for that read-out and setting: to `N#C/C(=C/c1ccc(N2CCCCCC2)o1)c1ccc(F)cc1` [MLS000051438] belongs 22.4 µM; to `Cc1noc(/C=C/N(C)C)c1S(=O)(=O)N1CCc2ccccc21` [(E)-2-[4-(2,3-dihydroindol-1-ylsulfonyl)-3-methyl-1,2-oxazol-5-yl]-N,N-dimethyl-ethenamine], 95 µM.

In turn, `CCNc1nc2c(c(=O)n(C)c(=O)n2C)n1Cc1ccc(Cl)cc1` [7-(4-chlorobenzyl)-8-(ethylamino)-1,3-dimethyl-xanthine] registered an EC50 of 12.9 µM. On the same count and under the same terms, to `COC(=O)c1ccc(C(c2c(N)n(CC(C)C)c(=O)[nH]c2=O)N2CCN(c3ccccc3)CC2)cc1` (centres undefined) [4-[[6-amino-1-(2-methylpropyl)-2,4-dioxo-5-pyrimidinyl]-(4-phenyl-1-piperazinyl)methyl]benzoic acid methyl ester] belongs 95 µM; to `CCOc1cc(-c2noc(-c3cccnc3)n2)ccc1OC` [3-(3-ethoxy-4-methoxy-phenyl)-5-(3-pyridyl)-1,2,4-oxadiazole], 18.7 µM.

The values above are taken from BindingDB's records for doi:10.7270/Q2251GJ9 (The Scripps Research Institute Molecular Screening Center, 2007).
